In data set [1] the test system is KMM1 high-risk MM cell line. Briefly: MTT cell proliferation inhibition, KMM1. It is filed as cell-based. Conditions: Homo sapiens, KMM-1, KMM1, t(6;14), t(8;14), del17, 48 hours, read-out: IC50, cell proliferation inhibitory activity, KMM1. The protocol: (§1) For examination of cell proliferation inhibitory activity, high-risk MM cell lines (KMM1, KMS11, KMS21, KMS26, KMS28, KMS34) established by Takemi Otsuki et al., of Kawasaki Medical School were used (Otsuki, T. et al., Int. J. Oncol., 15: 1205-1212, 1999). […] The genetic abnormality of these cell types, and in particular deletion of p53 gene were examined by FISH method (Chang, H. Blood, 105: 358-360, 2005) (WO2010/061862A1). […] These high-risk MM cell lines were treated with drugs such as TC11, HOEtO-TC11, PEG11(E)-TC11, and PEG11(O)-TC11 at arbitrary concentrations. […] Specifically, each high-risk MM cell line was prepared at a concentration of 2×10^5 cells/ml, and then seeded in an amount of 50 μl (1×10^4 cells) per well. After 24 hours, drugs such as TC11, HOEtO-TC11, PEG11(E)-TC11, and PEG11(O)-TC11 having arbitrary concentrations were added. At 48 hours after addition of each drug, 10 μL each of an MTT labeling reagent in Cell Proliferation Kit I [MTT] (Roche Diagnostics, Basel, Switzerland) was added. After 4 hours of treatment at 37° C., 100 μL each of solution buffer was added and then left to stand overnight at 37° C. Absorbance was measured using a microplate reader Infinit™ M1000 (Tecan, Maennedorf, Switzerland) at a wavelength of 570 nm. Cell viability was found from an absorbance ratio using absorbance at 0 μM designated as 100%. IC50 was calculated from a semi-logarithmic chart using Microsoft (registered trademark) Excel.

Data set [2] has as its system KMS11 high-risk MM cell line. Briefly: MTT cell proliferation inhibition, KMS11. The format is cell-based. Conditions: Homo sapiens, KMS-11, KMS11, t(4;14), del17, 48 hours, read-out: IC50, cell proliferation inhibitory activity, KMS11. As for the experimental part: as §1
Data set [3] has as its system KMS21 high-risk MM cell line. The data set is described as follows: MTT cell proliferation inhibition, KMS21. As to conditions: Homo sapiens, KMS21, t(11;14), 48 hours, read-out: IC50, cell proliferation inhibitory activity, KMS21. The format is cell-based. The protocol:
as §1
Moreover, the concentration dependency of the in vitro cell proliferation inhibitory activity of TC11, and its derivatives, PEG11(E)-TC11 and HOEtO-TC11 against high-risk MM cell line (KMS21) was examined in detail (FIG. 4). […] Such a phenomenon was similarly observed for other high-risk MM cell lines, KMS11, KMS34, and MUM24.

For data set [4], the system named is KMS26 high-risk MM cell line. Briefly: MTT cell proliferation inhibition, KMS26. It is filed as cell-based. As to conditions: Homo sapiens, KMS-26, KMS26, t(4;14), t(4;16), del17, 48 hours, read-out: IC50, cell proliferation inhibitory activity, KMS26. As for the experimental part: as §1
The test system of data set [5] is KMS28 high-risk MM cell line. The data set is described as follows: MTT cell proliferation inhibition, KMS28. As to conditions: Homo sapiens, KMS28, t(4;14), del17, 48 hours, read-out: IC50, cell proliferation inhibitory activity, KMS28. The format is cell-based. The protocol: as §1
The test system of data set [6] is KMS34 high-risk MM cell line. The data set is described as follows: MTT cell proliferation inhibition, KMS34. The format is cell-based. As to conditions: Homo sapiens, KMS-34, KMS34, t(4;14), del17, 48 hours, read-out: IC50, cell proliferation inhibitory activity, KMS34. The protocol:
as §1

The next data set relates to high-risk MM cell lines. The data set is described as follows: MTT cell proliferation inhibition, panel of high-risk MM cell lines. It is filed as cell-based. As to conditions: Homo sapiens, range over the cell lines of Table 2, 48 hours. As for the experimental part: as §1
Data set [7] deals with KMS34 (human myeloma cells). Briefly: WST-1 proliferation assay (Example 10), KMS34. It is filed as cell-based. As to conditions: KMS-34, WST-1, 48 hours. As for the experimental part: Cancer cells used herein were KMS34 (human myeloma cells), HeLa (human cervical cancer cells), HCT116 (human colon cancer cells; p53+/+), KATOIII (human stomach cancer cells), MDA-MB-231 (human breast cancer cells), HT-29 (human colon adenocarcinoma cells), PANC-1 (human pancreatic cancer cells), and Li-7 (human liver cancer cells). Proliferation assay of various cancer cells was performed by the WST-1 method (Cook, J A. & Mitchell, J B., Anal. Biochem., 179, 1-7, 1984) as follows. One μ1 each of PEG11(E)-TC11 and PEG11(O)-TC11 prepared in advance at target concentrations was added into each well of a 96-well microplate. Medium was added to the wells at 50 μl per well, and then mixed by tapping lightly the plate. Subsequently, KMS34 was prepared at a concentration of 5×10^5 cells/ml, and cells other than KMS34 were prepared at a concentration of 2×10^5 cells/ml. Cells were seeded at 50 μl per well (2.5×10^4 cells, 1×10^4 cells), and then incubated in a CO2 incubator (37° C., 5% CO2) for 48 hours. Ten μ1 each of cell proliferation reagent WST-1 (Roche) was added to each well after incubation, and then the resultants were mixed by lightly tapping the plate, followed by 1 hour of reaction in the CO2 incubator. Subsequently, the plate was shaken with a plate reader for 1 minute, and then absorbance was measured at 450 nm. At this time, absorbance was also measured at 595 nm as a reference wavelength. The net absorbance was obtained by subtracting the absorbance at the reference wavelength from the absorbance at 450 nm.
(Formazan colour is commonly taken as a measure of viable cells.)

The target of the next data set is T1, cereblon (CRBN) (Homo sapiens, UniProt Q96SW2).
T1 construct: recombinant full-length CRBN prepared by the above method was reacted with the beads; T7 tag (N); FLAG tag (C); made in house; host or cells: 293T cells (pcDNA3.3 vector), RIPA extract purified on Ni Sepharose excel
T1 sequence (Q96SW2 whole entry): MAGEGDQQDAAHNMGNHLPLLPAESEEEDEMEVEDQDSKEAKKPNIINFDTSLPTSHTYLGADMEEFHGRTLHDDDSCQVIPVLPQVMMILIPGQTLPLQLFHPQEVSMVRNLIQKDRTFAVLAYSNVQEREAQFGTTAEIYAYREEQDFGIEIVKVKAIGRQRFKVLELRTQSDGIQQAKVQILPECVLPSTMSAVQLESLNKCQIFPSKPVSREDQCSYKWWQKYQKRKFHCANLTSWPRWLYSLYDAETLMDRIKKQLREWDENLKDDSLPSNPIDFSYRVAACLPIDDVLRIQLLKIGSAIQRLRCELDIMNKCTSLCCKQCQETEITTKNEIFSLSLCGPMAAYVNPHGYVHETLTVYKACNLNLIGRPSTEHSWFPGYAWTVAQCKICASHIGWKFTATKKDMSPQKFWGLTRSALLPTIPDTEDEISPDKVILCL
Briefly: Surface plasmon resonance biosensor (BIACORE 3000) interaction with cereblon. As to conditions: measured at 1 μM, 2 μM and 10 μM, FIG. 9C. The format is binding. On the technique in general: Surface plasmon resonance follows binding to a sensor surface in real time, without labels.

Data set [8] is described as follows: Dissolution in physiological saline for dosing. The format is physicochemical. As to conditions: physiological saline (NaCl 0.9 w/v %) alone, dosing concentration.

Turning to `COCCOCCOCCOCCOCCOCCOCCOCCOCCOCCOCCOCCC(=O)OCCOc1cc2c(cc1N)C(=O)N(c1c(C(C)C)cccc1C(C)C)C2=O` [PEG11(E)-TC11], the IC50 in data set [1] worked out at 6.3 µM; in [2], 1.4 µM; in data set [3] it was 1.6 µM; in data set [4], 2.7 µM; in data set [5], 6.8 µM; in data set [6] it was 2.6 µM. The IC50 with high-risk MM cell lines was 1 to 7 µM; in [7] it was 0.67 µM. Moreover, the “Binding to CRBN (SPR sensorgram)” value at cereblon (CRBN) is recorded as “never bind to CRBN”. Also, the “Dissolution in physiological saline” value in data set [8] is recorded as “completely dissolved”.

`COCCOCCOCCOCCOCCOCCOCCOCCOCCOCCOCCOCCOc1cc2c(cc1N)C(=O)N(c1c(C(C)C)cccc1C(C)C)C2=O` [PEG11(O)-TC11]: the IC50 in [1] was determined as 59.3 µM; in data set [2], 4.8 µM; in data set [3] it was 22.7 µM; in data set [4], 16.4 µM; in [5], 25.8 µM; in data set [6] it was 10.5 µM. The figures for the IC50 (in the data set on high-risk MM cell lines; in data set [7]) were 5 to 60 µM and 16 µM, respectively. The “Binding to CRBN (SPR sensorgram)” value at cereblon (CRBN) was “never bind to CRBN”. In addition, in data set [8], the “Dissolution in physiological saline” value is reported as “completely dissolved”.

On to `CC(C)c1cccc(C(C)C)c1N1C(=O)c2ccc(N)cc2C1=O` [TC11, 2-(2,6-di-isopropylphenyl)-5-amino-1H-isoindole-1,3-dione, reference compound], for which the IC50 in data set [1] was 5.1 µM; in [2] it was 2 µM; in data set [3] it was 2.8 µM; in data set [4] it was 3 µM; in data set [5], 7.1 µM; in data set [6], 4 µM. Moreover, the IC50 was 2 to 8 µM in the data set on high-risk MM cell lines and 2.6 µM in data set [7]. Further, the “Binding to CRBN (SPR sensorgram)” value at cereblon (CRBN) is given as “never bind to CRBN”. In addition, the “Dissolution in physiological saline” value in data set [8] is recorded as “hardly dissolved”.

The values above are taken from patent US20190315775A1, “MODIFIED […] AND PHARMACEUTICAL COMPOSITION HAVING SAME AS ACTIVE INGREDIENT” (KEIO UNIVERSITY, priority 2016, published 2019).
